Active and inactive are the calls of the source.
How the values were obtained:
[1] = molecular target: Voltage-dependent T-type calcium channel subunit alpha-1H (Homo sapiens, UniProt O95180); assay: Selectivity screen (CACNA1H)
[2] = molecular target: T1, GABA-A receptor; anion channel (Rattus norvegicus) (UniProt O09028+P15431+P18506+P18508+P19969+P20236+P23574+P23576+P28471+P28473+P30191+P62813+P63079+P63138+Q91ZM7+Q9ES14); conditions: Compound concentration 10.0 uM
[3] = molecular target: Sodium-dependent noradrenaline transporter (Homo sapiens) (UniProt P23975); conditions: Compound concentration 10.0 uM
Sequence of Sodium-dependent noradrenaline transporter (Homo sapiens) (P23975 whole entry): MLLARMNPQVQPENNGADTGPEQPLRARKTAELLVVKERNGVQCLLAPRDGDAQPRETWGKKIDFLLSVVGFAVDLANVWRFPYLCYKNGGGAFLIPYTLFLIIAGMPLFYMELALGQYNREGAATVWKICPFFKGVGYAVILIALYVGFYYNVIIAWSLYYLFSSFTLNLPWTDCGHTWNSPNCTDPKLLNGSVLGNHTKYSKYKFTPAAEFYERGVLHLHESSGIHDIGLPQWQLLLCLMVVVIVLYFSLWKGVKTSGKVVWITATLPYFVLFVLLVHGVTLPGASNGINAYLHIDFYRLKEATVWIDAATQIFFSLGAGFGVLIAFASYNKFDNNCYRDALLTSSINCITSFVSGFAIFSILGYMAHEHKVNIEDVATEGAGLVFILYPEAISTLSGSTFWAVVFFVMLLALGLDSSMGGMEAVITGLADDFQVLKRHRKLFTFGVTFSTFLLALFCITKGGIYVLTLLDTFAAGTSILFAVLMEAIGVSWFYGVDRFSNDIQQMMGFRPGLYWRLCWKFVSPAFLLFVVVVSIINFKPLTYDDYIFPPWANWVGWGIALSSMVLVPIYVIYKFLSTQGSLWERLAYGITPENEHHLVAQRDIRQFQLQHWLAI

[4] = molecular target: Type-1 angiotensin II receptor (Homo sapiens) (UniProt P30556); conditions: Compound concentration 10.0 uM
Sequence of Type-1 angiotensin II receptor (Homo sapiens) (P30556 whole entry): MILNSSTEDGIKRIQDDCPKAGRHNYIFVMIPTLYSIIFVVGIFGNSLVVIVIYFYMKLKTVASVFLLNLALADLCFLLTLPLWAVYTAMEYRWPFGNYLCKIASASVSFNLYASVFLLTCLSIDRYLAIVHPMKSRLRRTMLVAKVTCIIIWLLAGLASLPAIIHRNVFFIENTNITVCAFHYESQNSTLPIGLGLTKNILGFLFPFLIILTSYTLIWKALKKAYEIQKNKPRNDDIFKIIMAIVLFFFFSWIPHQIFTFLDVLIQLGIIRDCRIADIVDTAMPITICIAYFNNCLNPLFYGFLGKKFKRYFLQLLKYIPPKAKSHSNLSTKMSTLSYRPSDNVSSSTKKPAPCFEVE

[5] = species on record: Homo sapiens; assay: Inhibition of Nicotinic Acetylcholine at compound concentration of 10.0 uM in the Eurofins-Panlabs radioligand binding assay (Eurofins_assay_258590); assay type: protein-complex assay; conditions: Compound concentration 10.0 uM
[6] = molecular target: Potassium channel subfamily K member 9 (Homo sapiens, UniProt Q9NPC2); assay: Selectivity screen (KCNK9)
[7] = molecular target: D(1A) dopamine receptor (Homo sapiens) (UniProt P21728); conditions: Compound concentration 10.0 uM
Sequence of D(1A) dopamine receptor (Homo sapiens) (P21728 whole entry): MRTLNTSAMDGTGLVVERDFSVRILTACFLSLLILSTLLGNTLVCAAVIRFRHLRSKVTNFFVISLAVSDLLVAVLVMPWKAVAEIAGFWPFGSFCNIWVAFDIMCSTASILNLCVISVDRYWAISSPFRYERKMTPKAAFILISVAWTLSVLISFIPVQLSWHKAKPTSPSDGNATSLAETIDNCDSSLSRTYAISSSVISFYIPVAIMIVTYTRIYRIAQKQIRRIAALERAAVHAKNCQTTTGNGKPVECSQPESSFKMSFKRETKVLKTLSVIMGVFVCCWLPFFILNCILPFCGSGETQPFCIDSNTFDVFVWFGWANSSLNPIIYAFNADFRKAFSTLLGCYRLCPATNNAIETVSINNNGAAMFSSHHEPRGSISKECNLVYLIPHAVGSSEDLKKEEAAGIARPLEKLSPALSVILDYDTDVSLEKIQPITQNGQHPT

[8] = molecular target: T1, GABA-A receptor; anion channel (Rattus norvegicus); conditions: Compound concentration 10.0 uM; remark: listed apart in the source
[9] = species on record: Oryctolagus cuniculus; assay: Inhibition of Purinergic P2X at 10 µM in the Eurofins-Panlabs radioligand binding assay (Eurofins_assay_268700); assay type: protein assay; conditions: Compound concentration 10.0 uM
[10] = molecular target: Sodium-dependent noradrenaline transporter (Homo sapiens) (UniProt P23975); conditions: Compound concentration 10.0 uM; remark: listed apart in the source
[11] = molecular target: Progesterone receptor (Homo sapiens, UniProt P06401); assay: Inhibition of Progesterone PR-B at compound concentration of 10.0 uM in the Eurofins-Panlabs radioligand binding assay (Eurofins_assay_299005); design: ligand concentration 0.5 nM, non-specific ligand with concentration 1 uM R5020, incubation time 20 h, incubation temperature 4 C
Sequence of Progesterone receptor (P06401 whole entry): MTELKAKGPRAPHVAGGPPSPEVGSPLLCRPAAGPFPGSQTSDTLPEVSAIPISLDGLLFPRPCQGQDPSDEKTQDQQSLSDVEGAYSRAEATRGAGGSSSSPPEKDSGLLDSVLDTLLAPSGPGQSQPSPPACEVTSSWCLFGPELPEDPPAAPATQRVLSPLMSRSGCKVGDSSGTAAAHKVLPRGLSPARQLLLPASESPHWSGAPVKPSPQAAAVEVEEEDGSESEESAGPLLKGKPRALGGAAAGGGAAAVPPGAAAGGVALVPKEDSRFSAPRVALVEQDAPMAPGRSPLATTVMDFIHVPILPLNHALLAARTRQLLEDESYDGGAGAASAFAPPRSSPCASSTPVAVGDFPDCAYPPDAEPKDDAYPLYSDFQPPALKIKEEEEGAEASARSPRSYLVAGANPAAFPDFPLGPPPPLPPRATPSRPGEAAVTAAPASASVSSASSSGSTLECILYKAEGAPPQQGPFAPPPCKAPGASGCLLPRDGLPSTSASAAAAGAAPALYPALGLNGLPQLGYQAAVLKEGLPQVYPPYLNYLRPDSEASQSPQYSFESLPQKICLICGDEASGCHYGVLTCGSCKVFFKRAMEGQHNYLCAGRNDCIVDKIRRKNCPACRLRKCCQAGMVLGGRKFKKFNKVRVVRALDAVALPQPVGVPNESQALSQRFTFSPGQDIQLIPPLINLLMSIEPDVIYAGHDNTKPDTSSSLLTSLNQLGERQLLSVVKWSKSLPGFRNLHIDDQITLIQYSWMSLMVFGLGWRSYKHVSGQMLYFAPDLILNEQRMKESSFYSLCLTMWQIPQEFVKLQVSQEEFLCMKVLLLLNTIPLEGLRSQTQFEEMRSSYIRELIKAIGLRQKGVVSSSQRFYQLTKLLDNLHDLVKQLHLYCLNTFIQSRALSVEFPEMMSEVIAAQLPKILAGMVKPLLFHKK

[12] = molecular target: T2, Muscarinic acetylcholine receptor M4 (Homo sapiens) (UniProt P08173); conditions: Compound concentration 10.0 uM
T2 sequence (whole entry): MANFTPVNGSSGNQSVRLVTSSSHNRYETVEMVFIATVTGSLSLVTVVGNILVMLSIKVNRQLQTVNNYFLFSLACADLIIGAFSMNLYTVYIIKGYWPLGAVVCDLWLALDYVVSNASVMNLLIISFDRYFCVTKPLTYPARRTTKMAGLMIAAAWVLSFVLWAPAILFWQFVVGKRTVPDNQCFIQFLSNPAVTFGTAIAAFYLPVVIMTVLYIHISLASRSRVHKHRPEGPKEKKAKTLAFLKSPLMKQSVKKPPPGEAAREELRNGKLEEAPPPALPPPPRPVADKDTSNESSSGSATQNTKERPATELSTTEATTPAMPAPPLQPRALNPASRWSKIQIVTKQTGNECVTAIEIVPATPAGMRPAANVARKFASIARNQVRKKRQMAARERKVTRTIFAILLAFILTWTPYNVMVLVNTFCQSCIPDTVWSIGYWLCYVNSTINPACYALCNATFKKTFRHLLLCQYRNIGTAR

[13] = FLIPR Ca2+ assay (monkey TRPA1)
[14] = molecular target: Glutamate NMDA receptor (Rattus norvegicus) (UniProt P35439+Q00959+Q00960+Q00961+Q62645+Q8VHN2+Q9R1M7); conditions: Compound concentration 10.0 uM
[15] = molecular target: Sigma non-opioid intracellular receptor 1 (Homo sapiens) (UniProt Q99720); conditions: Compound concentration 10.0 uM
[16] = molecular target: Alpha-2B adrenergic receptor (Homo sapiens) (UniProt P18089); conditions: Compound concentration 10.0 uM
Sequence of Alpha-2B adrenergic receptor (Homo sapiens) (P18089 whole entry): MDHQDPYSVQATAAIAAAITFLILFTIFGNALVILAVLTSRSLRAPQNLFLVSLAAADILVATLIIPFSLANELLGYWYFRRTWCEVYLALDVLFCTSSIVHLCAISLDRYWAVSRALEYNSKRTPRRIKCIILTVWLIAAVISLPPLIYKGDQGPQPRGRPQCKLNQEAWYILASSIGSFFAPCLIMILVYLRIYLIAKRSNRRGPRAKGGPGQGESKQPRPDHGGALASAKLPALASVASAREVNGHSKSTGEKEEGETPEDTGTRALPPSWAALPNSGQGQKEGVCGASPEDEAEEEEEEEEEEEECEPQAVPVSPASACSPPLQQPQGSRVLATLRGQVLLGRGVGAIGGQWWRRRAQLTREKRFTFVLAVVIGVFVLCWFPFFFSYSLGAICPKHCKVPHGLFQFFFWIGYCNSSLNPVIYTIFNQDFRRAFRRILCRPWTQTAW

[17] = molecular target: Sodium-dependent dopamine transporter (Homo sapiens, UniProt Q01959); conditions: Compound concentration 10.0 uM
[18] = molecular target: ANK_REP_REGION domain-containing protein (Cavia porcellus, UniProt H0VJD1); assay: FLIPR Ca2+ assay (guinea pig TRPA1)
[19] = molecular target: Gamma-aminobutyric acid type B receptor subunit 1 (Homo sapiens) (UniProt Q9UBS5); conditions: Rattus norvegicus; Compound concentration 10.0 uM
[20] = molecular target: Adenosine receptor A3 (Homo sapiens) (UniProt P0DMS8); conditions: Compound concentration 10.0 uM
[21] = molecular target: Mu-type opioid receptor (Homo sapiens) (UniProt P35372); conditions: Compound concentration 10.0 uM
[22] = molecular target: Androgen receptor (Homo sapiens) (UniProt P10275); conditions: Compound concentration 10.0 uM
[23] = molecular target: Type-2 angiotensin II receptor (Homo sapiens) (UniProt P50052); conditions: Compound concentration 10.0 uM
Sequence of Type-2 angiotensin II receptor (Homo sapiens) (P50052 whole entry): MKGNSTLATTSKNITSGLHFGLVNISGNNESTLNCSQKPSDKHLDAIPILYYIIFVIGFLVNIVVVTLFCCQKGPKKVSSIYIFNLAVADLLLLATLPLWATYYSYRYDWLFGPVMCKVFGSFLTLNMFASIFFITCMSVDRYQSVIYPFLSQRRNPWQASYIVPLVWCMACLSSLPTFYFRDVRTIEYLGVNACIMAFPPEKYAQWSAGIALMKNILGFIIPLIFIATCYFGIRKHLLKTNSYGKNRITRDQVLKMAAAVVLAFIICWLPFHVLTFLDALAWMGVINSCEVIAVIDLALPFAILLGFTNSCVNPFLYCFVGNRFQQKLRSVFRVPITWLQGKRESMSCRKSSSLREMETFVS

[24] = molecular target: Beta-1 adrenergic receptor (Homo sapiens) (UniProt P08588); conditions: Compound concentration 10.0 uM
[25] = molecular target: Delta-type opioid receptor (Homo sapiens) (UniProt P41143); conditions: Compound concentration 10.0 uM
Sequence of Delta-type opioid receptor (Homo sapiens) (P41143 whole entry): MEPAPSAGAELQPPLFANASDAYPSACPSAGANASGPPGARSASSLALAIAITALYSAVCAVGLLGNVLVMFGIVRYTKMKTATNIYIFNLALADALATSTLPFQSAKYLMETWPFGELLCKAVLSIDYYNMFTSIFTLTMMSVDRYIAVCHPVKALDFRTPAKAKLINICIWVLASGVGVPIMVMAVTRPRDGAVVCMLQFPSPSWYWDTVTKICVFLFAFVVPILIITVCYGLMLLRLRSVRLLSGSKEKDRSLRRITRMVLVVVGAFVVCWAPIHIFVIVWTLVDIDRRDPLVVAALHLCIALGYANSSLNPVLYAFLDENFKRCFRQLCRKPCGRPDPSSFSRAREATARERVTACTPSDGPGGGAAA

[26] = molecular target: Estrogen receptor (Homo sapiens, UniProt P03372); assay: Inhibition of Estrogen ERalpha at compound concentration of 10.0 uM in the Eurofins-Panlabs radioligand binding assay (Eurofins_assay_226010); design: ligand concentration 0.5 nM, non-specific ligand with concentration 1 uM Diethylstilbestrol, incubation time 2 h, incubation temperature 25 C
Sequence of Estrogen receptor (P03372 whole entry): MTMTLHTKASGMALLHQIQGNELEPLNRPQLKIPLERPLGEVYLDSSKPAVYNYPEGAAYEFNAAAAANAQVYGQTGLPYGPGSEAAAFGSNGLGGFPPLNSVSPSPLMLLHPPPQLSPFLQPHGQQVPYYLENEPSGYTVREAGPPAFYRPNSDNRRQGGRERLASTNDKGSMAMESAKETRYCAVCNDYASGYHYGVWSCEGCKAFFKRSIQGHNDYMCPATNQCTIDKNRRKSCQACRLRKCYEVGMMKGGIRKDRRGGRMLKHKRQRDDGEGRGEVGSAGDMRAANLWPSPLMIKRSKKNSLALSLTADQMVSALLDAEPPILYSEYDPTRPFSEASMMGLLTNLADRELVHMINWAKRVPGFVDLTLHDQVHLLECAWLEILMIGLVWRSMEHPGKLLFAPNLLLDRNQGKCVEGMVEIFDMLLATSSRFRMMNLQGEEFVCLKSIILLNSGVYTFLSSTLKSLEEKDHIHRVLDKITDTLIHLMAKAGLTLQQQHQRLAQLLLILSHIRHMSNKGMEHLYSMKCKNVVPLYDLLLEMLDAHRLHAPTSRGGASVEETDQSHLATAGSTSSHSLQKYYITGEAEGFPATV

[27] = molecular target: B2 bradykinin receptor (Homo sapiens) (UniProt P30411); conditions: Compound concentration 10.0 uM
[28] = molecular target: D(2) dopamine receptor (Homo sapiens) (UniProt P14416); conditions: Compound concentration 10.0 uM
[29] = molecular target: Sodium-dependent serotonin transporter (Homo sapiens) (UniProt P31645); conditions: Compound concentration 10.0 uM
[30] = molecular target: Motilin receptor (Homo sapiens) (UniProt O43193); conditions: Compound concentration 10.0 uM
Sequence of Motilin receptor (Homo sapiens) (O43193 whole entry): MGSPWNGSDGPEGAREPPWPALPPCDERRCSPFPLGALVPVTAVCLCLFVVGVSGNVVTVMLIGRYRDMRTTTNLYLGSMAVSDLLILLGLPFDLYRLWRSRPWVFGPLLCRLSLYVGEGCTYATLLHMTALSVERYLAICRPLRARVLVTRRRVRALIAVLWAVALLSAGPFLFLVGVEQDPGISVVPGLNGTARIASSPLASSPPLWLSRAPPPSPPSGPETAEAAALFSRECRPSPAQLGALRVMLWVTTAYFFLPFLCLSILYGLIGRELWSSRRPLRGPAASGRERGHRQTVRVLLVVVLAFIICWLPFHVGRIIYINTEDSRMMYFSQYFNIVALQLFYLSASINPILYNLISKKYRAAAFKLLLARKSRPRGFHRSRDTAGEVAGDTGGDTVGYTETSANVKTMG

[31] = molecular target: Estrogen receptor (Homo sapiens) (UniProt P03372); conditions: Compound concentration 10.0 uM
Sequence of Estrogen receptor (Homo sapiens) (P03372 whole entry): as the sequence (P03372 whole entry) above

[32] = molecular target: 5-hydroxytryptamine receptor 1E (Homo sapiens) (UniProt P28566); conditions: Compound concentration 10.0 uM
Sequence of 5-hydroxytryptamine receptor 1E (Homo sapiens) (P28566 whole entry): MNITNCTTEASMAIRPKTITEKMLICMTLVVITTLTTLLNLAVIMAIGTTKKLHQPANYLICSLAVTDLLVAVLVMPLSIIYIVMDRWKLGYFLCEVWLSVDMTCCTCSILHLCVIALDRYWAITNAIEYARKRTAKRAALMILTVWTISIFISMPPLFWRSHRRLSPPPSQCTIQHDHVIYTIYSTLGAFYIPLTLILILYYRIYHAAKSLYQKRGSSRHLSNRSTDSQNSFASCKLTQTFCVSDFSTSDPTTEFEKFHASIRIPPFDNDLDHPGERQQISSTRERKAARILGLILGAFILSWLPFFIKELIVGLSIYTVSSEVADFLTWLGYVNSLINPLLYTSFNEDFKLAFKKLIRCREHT

[33] = molecular target: 5-hydroxytryptamine receptor 2B (Homo sapiens) (UniProt P41595); conditions: Compound concentration 10.0 uM
[34] = molecular target: 5-hydroxytryptamine receptor 1D (Homo sapiens) (UniProt P28221); conditions: Compound concentration 10.0 uM
[35] = molecular target: Histamine H2 receptor (Homo sapiens, UniProt P25021); assay: GPCRScan assay: inhibition of H2; design: radioligand conc. used [nm] 0.02 – 0.05, parental cells Stable HEK

O[C@]1(C(F)(F)F)CCCC[C@H]1Nc1ccc(F)cc1 [BAY-390]
0.72 µM: Ki [26]
2.5 µM: IC50 [26]
active: IC50 [13] 0.019 µM | inhibition [17] 84% | IC50 [18] 0.068 µM | inhibition [31] 75%
inactive: inhibition [2] 19.7% | inhibition [3] 0.78% | inhibition [4] 4% | inhibition [5] -7% | inhibition [7] 15.6% | inhibition [8] -8% | inhibition [9] 3% | inhibition [10] 16% | inhibition [12] 14% | inhibition [14] 5% | inhibition [15] 36.2% | inhibition [16] 2% | inhibition [19] 3% | inhibition [20] 4% | inhibition [21] 5% | inhibition [22] 47% | inhibition [23] 1% | inhibition [24] 3% | inhibition [25] -6% | inhibition [27] 4% | inhibition [28] 13% | inhibition [29] 3% | inhibition [30] 13%
5 µM: IC50 [11]
4 µM: Ki [11]
> 30 µM (not active): IC50 [1]
> 25 µM (not active): IC50 [6]

COc1cc(N[C@@H]2CCCC[C@]2(O)C(F)(F)F)ccc1F [BAY-9897]
9.78 µM: Ki [35]
inactive: inhibition [32] -4.13% | inhibition [33] 18% | inhibition [34] 2.77%
